Measured values reported in PMC13091788 (NPJ Aging, 2026).

What was measured:
[1] = system: MITOL and mitochondrial proteins in C2C12 myoblasts; experiment: Western blot of mitochondrial proteins in C2C12 myoblasts; format: cell-based, mouse; details: 48 h; for levels of Tom20, Mfn2, HSP60 and ATP5a proteins / protein level of MITOL: C2C12, 5 μM or 10 μM
Description: (§1) Murine myoblast C2C12 cells were used for various cellular experiments in this study. Two different sources of C2C12 cells were used depending on the experiment: C2C12 cells obtained from RIKEN BRC (RCB0987) were used for gene expression, mtDNA quantification, and mitochondrial morphology analysis; C2C12 cells from ATCC (CRL-1772) were used for OCR analysis. Cells were cultured in Dulbecco’s Modified Eagle Medium (DMEM; Sigma-Aldrich or Nacalai Tesque), supplemented with 10% FBS and 1% penicillin–streptomycin. Cells were maintained in a humidified incubator at 37°C with 5% CO2.
(§2) For cellular experiments, berberine or quinoid-type berberrubine (Q-BRB) was dissolved in DMSO, and berberrubine acetic acid adduct (AcA-BRB) was dissolved in distilled H2O. Each compound was diluted in culture medium to the indicated final concentrations.
Proteins in sample buffer were separated by SDS-PAGE and transferred to Immobilon-P PVDF membranes (IPVH00010, Millipore). Blots were probed with the indicated antibodies, and protein bands on the blot were visualized using Chemi-Lumi One L (07880-70, Nacalai Tesque) or Immobilon Western Chemiluminescent HRP Substrate (WBKLS0500, Millipore). Band images were captured using a LuminoGraph I imager (WSE-6100, ATTO). Relative band intensities were quantified using Fiji/ImageJ software. Unprocessed western blot images corresponding to the data presented in the main and supplementary figures are provided in Supplementary Figures 11–16.

[2] = Water solubility, roughly examined; format: physicochemical
Description: Finally, we compared the water solubility of the three berberrubine forms. The solubility of three compounds, the reddish-black solid (quinoid-type berberrubine), the reddish-brown solid (berberrubine acetic acid salt), and the yellow solid (berberrubine acetic acid adduct), in water was roughly examined. […] On the other hand, the reddish-brown solid dissolved in about 30 mg in 1 mL of water.

C2C12 myoblasts = experiment: Oxygen consumption analysis of C2C12 cells (Seahorse); format: cell-based, mouse; details: C2C12, 30 μM, 24 h, vs solvent control
Description: as §1
To generate mMITOL-knockout C2C12 cells, CRISPR-Cas9 vectors were constructed. […]
The oxygen consumption rate (OCR) of C2C12 myoblasts and H9c2 cardiomyocytes were measured using a Seahorse XFe24 Analyzer and the Seahorse XF Cell Mito Stress Test Kit (Agilent Technologies), as well as a Seahorse XF HS Mini Analyzer and the Seahorse XFp Cell Mito Stress Test Kit (Agilent Technologies), according to the manufacturer’s protocol. […] The assay was performed at 37 °C, and OCR was measured at baseline and after sequential injections of the following compounds: oligomycin (Oligo; 1 μM), FCCP (0.5 μM), and a mixture of rotenone and antimycin A (Rot/Anti; 0.5 μM each). […] Non-mitochondrial respiration was defined as the OCR measured after the injection of rotenone and antimycin A.

[3] = Hepatic microsomal stability assay, human; format: in vitro ADME; details: CLint, 1 μM, 0.2 mg/mL microsomes, NADPH, 30 min
Description: Disappearance of the parent compound over time was measured by using the amount of drug at time zero as a reference. After 5 min of preincubation, 1 mM NADPH (final concentration; the same applies to the following) was added to a mixture containing 1 μM of the compound, 0.2 mg/mL of human or mouse liver microsomes (Sekisui XenoTech), 1 mM EDTA and 0.1 M phosphate buffer (pH 7.4). The mixture solution was incubated at 37 °C for 30 min with rotation at 60 rpm. An aliquot of 50 μL of the incubation mixture was added to 250 μL of chilled acetonitrile/internal standard (IS, methyltestosterone). After centrifugation at 3150 × g for 15 min at 4 °C, the supernatants were analyzed by LC-MS/MS. Hepatic microsomal stability (mL/min/kg, CLint) was calculated according to a previous report, using 48.8 (human) or 45.4 (mouse) mg MS protein/g liver and 25.7 (human) or 87.5 (mouse) g liver/kg body weight as scaling factors. Two technical replicates were performed.

[4] = system: MITOL and Tom20 mRNA in C2C12 cells; experiment: qRT-PCR analysis of C2C12 cells; format: cell-based, mouse; details: C2C12, 5 μM or 10 μM
Description: as §1, §2
Total RNA was extracted from C2C12 cells using an RNA extraction kit (RNeasy Mini Kit, Qiagen). After washing with PBS, cells were collected by trypsinization and centrifugation at 500 × g for 5 min, and the pellet was lysed according to the manufacturer’s instructions. The extracted RNA was reverse-transcribed into cDNA using a reverse transcription kit (ReverTra Ace, TOYOBO). Quantitative real-time PCR was performed using a qPCR master mix (KAPA SYBR FAST qPCR Master Mix (2X) Kit, KAPABIOSYSTEMS) and a thermal cycler (StepOnePlus, Applied Biosystems). Gene expression levels were normalized to GAPDH. Primer sets used for qRT-PCR are listed in Supplementary Table 1.

Compound | MITOL expression (western blot) ([1]; C2C12, 10 μM, berberrubine used as quinoid-type form) | expression of other mitochondrial-associated proteins (Tom20, Mfn2, HSP60, ATP5a) ([1]; C2C12, 10 μM, quinoid-type form) | protein levels of OPA1, Fis1 and MFF ([1]; C2C12, Q-BRB or AcA-BRB 10 μM) | dissolution in 1000 mL of water [2] | OCR: basal respiration, ATP synthesis-linked respiration and maximal respiration (C2C12 myoblasts) | levels of Tom20, Mfn2, HSP60 and ATP5a proteins [1] | protein level of MITOL [1] | Liver microsomal metabolic stability human (pH7.4) [3] [mL/min/kg] | solubility ([2]; roughly examined) [mg/mL] | mRNA levels of MITOL and Tom20 [4]
COc1ccc2cc3[n+](cc2c1O)CCc1cc2c(cc1-3)OCO2 [berberrubine] | significantly upregulated | markedly increased | increased | did not dissolve | – | – | – | – | – | –
COc1ccc2cc3[n+](cc2c1O)CCc1cc2c(cc1-3)OCO2 [AcA-BRB, berberrubine acetic acid adduct] | – | – | – | – | significantly increased | dose-dependent trend in elevating | significantly increased | < 22.0 | ≥ 1000 | increased
COc1ccc2cc3n(cc-2c1=O)CCc1cc2c(cc1-3)OCO2 [Q-BRB, quinoid-type berberrubine] | – | – | – | not possible to observe any dissolution | significantly increased | dose-dependent trend in elevating | significantly increased | < 22.0 | – | increased
